From patent US20190367516A1 (Bayer Pharma Aktiengesellschaft, priority 2015, published 2019) come the findings set out here.

For the test, the target named is T1, human M2 receptor (Homo sapiens, UniProt P08172).
T1 sequence (P08172 1-466): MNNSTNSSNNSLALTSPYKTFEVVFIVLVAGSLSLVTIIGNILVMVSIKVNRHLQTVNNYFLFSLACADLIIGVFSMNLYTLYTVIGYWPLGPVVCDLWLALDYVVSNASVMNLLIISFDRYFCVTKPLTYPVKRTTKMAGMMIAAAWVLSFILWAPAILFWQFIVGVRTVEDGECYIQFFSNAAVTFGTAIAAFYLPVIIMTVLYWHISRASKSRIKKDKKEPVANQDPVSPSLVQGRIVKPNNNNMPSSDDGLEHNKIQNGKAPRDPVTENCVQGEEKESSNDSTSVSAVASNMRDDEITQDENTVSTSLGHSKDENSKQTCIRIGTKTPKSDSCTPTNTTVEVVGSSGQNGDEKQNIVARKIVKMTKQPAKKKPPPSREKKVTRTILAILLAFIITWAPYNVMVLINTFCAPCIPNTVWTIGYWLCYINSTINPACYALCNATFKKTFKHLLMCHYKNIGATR
The following applies: Receptor activity EC50, M2-GIRK1/4 activation test, acetylcholine at EC20; allosteric potency; in some cases mean values from two or more determinations.
For orientation: EC50 means the concentration that produces a half-maximal response. The low end stands for greater potency, the high end for weaker potency. Compound `CCCC(NC(=O)c1cn(-c2ccc(F)cc2F)c2nc(N3CCC(F)(F)C3)ccc2c1=O)C(F)(F)F` (racemic) [Example 76, rac-1-(2,4-Difluorophenyl)-7-(3,3-difluoropyrrolidin-1-yl)-4-oxo-N-[1,1,1-trifluoropentan-2-yl]-1,4-dihydro-1,8-naphthyridine-3-carboxamide] displayed an EC50 of 69 nM.
In turn, `CCCC(NC(=O)c1cn(-c2ccc(F)cc2F)c2nc(NCCF)ccc2c1=O)C(F)(F)F` (racemic) [Example 86, rac-1-(2,4-Difluorophenyl)-7-[(2-fluoroethyl)amino]-4-oxo-N-[(2R)-1,1,1-trifluoropentan-2-yl]-1,4-dihydro-1,8-naphthyridine-3-carboxamide] came in with an EC50 of 108 nM.
As for `CC(C)CC(NC(=O)c1cn(-c2ccc(F)cc2F)c2nc(NCC(F)(F)F)ccc2c1=O)C(F)(F)F` (racemic) [Example 95, rac-1-(2,4-Difluorophenyl)-4-oxo-7-[(2,2,2-trifluoroethyl)amino]-N-[1,1,1-trifluoro-4-methylpentan-2-yl]-1,4-dihydro-1,8-naphthyridine-3-carboxamide], the figure is 144 nM; as for `CC(NC(=O)c1cn(-c2ccc(F)cc2F)c2nc(N(C)CC(F)(F)F)ccc2c1=O)C(F)(F)F` (racemic) [Example 99, rac-1-(2,4-Difluorophenyl)-7-[methyl(2,2,2-trifluoroethyl)amino]-4-oxo-N-[1,1,1-trifluoropropan-2-yl]-1,4-dihydro-1,8-naphthyridine-3-carboxamide], 182 nM.
`CCC(NC(=O)c1cn(-c2ccc(F)cc2F)c2nc(N(C)CC(F)(F)F)ccc2c1=O)C(F)(F)F` (racemic) [Example 100]: it took 143 nM to reach a half-maximal effect (EC50).
For `CC(NC(=O)c1cn(-c2ccc(F)cc2F)c2nc(N(C)CCF)ccc2c1=O)C(F)(F)F` (racemic) [Example 105, rac-1-(2,4-Difluorophenyl)-7-[(2-fluoroethyl)(methyl)amino]-4-oxo-N-[1,1,1-trifluoropropan-2-yl]-1,4-dihydro-1,8-naphthyridine-3-carboxamide], it took 146 nM to reach a half-maximal effect (EC50).
Consider `CC(NC(=O)c1cn(-c2ccc(F)cc2F)c2nc(N(C)CC(F)F)ccc2c1=O)C(F)(F)F` (racemic) [Example 113, rac-7-[(2,2-Difluoroethyl)(methyl)amino]-1-(2,4-difluorophenyl)-4-oxo-N-[1,1,1-trifluoropropan-2-yl]-1,4-dihydro-1,8-naphthyridine-3-carboxamide], for which the half-maximal effective concentration (EC50) came to 141 nM.
In turn, `CCC(NC(=O)c1cn(-c2ccc(F)cc2F)c2nc(N(C)CC(F)F)ccc2c1=O)C(F)(F)F` (racemic) [Example 114, rac-7-[(2,2-Difluoroethyl)(methyl)amino]-1-(2,4-difluorophenyl)-4-oxo-N-[1,1,1-trifluorobutan-2-yl]-1,4-dihydro-1,8-naphthyridine-3-carboxamide] came in with an EC50 of 98 nM. This EC50 and that of the compound before are within 1.5-fold of each other.
Under `O=C(NC12CC3CC(CC(C3)C1)C2)c1cn(-c2ccc(F)cc2F)c2nc(N3CCOC(CO)C3)ccc2c1=O` (racemic) [Example 118, rac-1-(2,4-Difluorophenyl)-7-[2-(hydroxymethyl)morpholin-4-yl]-4-oxo-N-(tricyclo[3.3.1.1^3,7]dec-1-yl)-1,4-dihydro-1,8-naphthyridine-3-carboxamide] stands 91 nM; under `CC1(O)CCCN(c2ccc3c(=O)c(C(=O)NC45CC6CC(CC(C6)C4)C5)cn(-c4ccc(F)cc4F)c3n2)C1` (racemic) [Example 119, rac-1-(2,4-Difluorophenyl)-7-(3-hydroxy-3-methylpiperidin-1-yl)-4-oxo-N-(tricyclo[3.3.1.1^3,7]dec-1-yl)-1,4-dihydro-1,8-naphthyridine-3-carboxamide], 90 nM.
As for `CCC(NC(=O)c1cn(-c2ccc(F)cc2F)c2nc(NCC(F)F)ccc2c1=O)C(F)(F)F` (racemic) [Example 122, rac-7-[(2,2-Difluoroethyl)amino]-1-(2,4-difluorophenyl)-4-oxo-N-[1,1,1-trifluorobutan-2-yl]-1,4-dihydro-1,8-naphthyridine-3-carboxamide], the figure is 94 nM.
Consider `CC(C)CC(NC(=O)c1cn(-c2ccc(F)cc2F)c2nc(NCC(F)F)ccc2c1=O)C(F)(F)F` (racemic) [Example 125, rac-7-[(2,2-Difluoroethyl)amino]-1-(2,4-difluorophenyl)-4-oxo-N-[1,1,1-trifluoro-4-methylpentan-2-yl]-1,4-dihydro-1,8-naphthyridine-3-carboxamide], for which the concentration for a half-maximal effect (EC50) stood at 116 nM.
Under `Cc1cccc(C(NC(=O)c2cn(-c3ccc(F)cc3F)c3nc(N(C)C)ccc3c2=O)C(F)(F)F)c1` (racemic) [Example 138, rac-1-(2,4-Difluorophenyl)-7-(dimethylamino)-4-oxo-N-[2,2,2-trifluoro-1-(3-methylphenyl)ethyl]-1,4-dihydro-1,8-naphthyridine-3-carboxamide] stands 68 nM.
Consider `CN(C)c1ccc2c(=O)c(C(=O)NC(c3ccc(F)cc3)C(F)(F)F)cn(-c3ccc(F)cc3F)c2n1` (racemic) [Example 139, rac-1-(2,4-Difluorophenyl)-7-(dimethylamino)-4-oxo-N-[2,2,2-trifluoro-1-(4-fluorophenyl)ethyl]-1,4-dihydro-1,8-naphthyridine-3-carboxamide], for which the midpoint of the response, the EC50, lay at 65 nM. The EC50 values of the last two compounds are within 1.5-fold of each other.
In the case of `CN(C)c1ccc2c(=O)c(C(=O)NC(c3cccc(F)c3)C(F)(F)F)cn(-c3ccc(F)cc3F)c2n1` (racemic) [Example 140, rac-1-(2,4-Difluorophenyl)-7-(dimethylamino)-4-oxo-N-[2,2,2-trifluoro-1-(3-fluorophenyl)ethyl]-1,4-dihydro-1,8-naphthyridine-3-carboxamide], the EC50 stood at 68 nM.
As for `Cc1ccc(C(NC(=O)c2cn(-c3ccc(F)cc3F)c3nc(N(C)C)ccc3c2=O)C(F)(F)F)cc1` (racemic) [Example 141, rac-1-(2,4-Difluorophenyl)-7-(dimethylamino)-4-oxo-N-[2,2,2-trifluoro-1-(4-methylphenyl)ethyl]-1,4-dihydro-1,8-naphthyridine-3-carboxamide], the EC50 was 83 nM.
Under `Cc1ccccc1C(NC(=O)c1cn(-c2ccc(F)cc2F)c2nc(N(C)C)ccc2c1=O)C(F)(F)F` (racemic) [Example 142, rac-1-(2,4-Difluorophenyl)-7-(dimethylamino)-4-oxo-N-[2,2,2-trifluoro-1-(2-methylphenyl)ethyl]-1,4-dihydro-1,8-naphthyridine-3-carboxamide] stands 110 nM.
As for `CN(C)c1ccc2c(=O)c(C(=O)NC(Cc3ccccc3)C(F)(F)F)cn(-c3ccc(F)cc3F)c2n1` (racemic) [Example 143, rac-1-(2,4-Difluorophenyl)-7-(dimethylamino)-4-oxo-N-(1,1,1-trifluoro-3-phenylpropan-2-yl)-1,4-dihydro-1,8-naphthyridine-3-carboxamide], the figure is 37 nM; as for `CCCC(NC(=O)c1cn(-c2ccc(F)cc2F)c2nc(N(C)C)ccc2c1=O)C(F)(F)F` (racemic) [Example 144, rac-1-(2,4-Difluorophenyl)-7-(dimethylamino)-4-oxo-N-(1,1,1-trifluoropentan-2-yl)-1,4-dihydro-1,8-naphthyridine-3-carboxamide], 32 nM.
Consider `CC(C)CC(NC(=O)c1cn(-c2ccc(F)cc2F)c2nc(N(C)C)ccc2c1=O)C(F)(F)F` (racemic) [Example 145, rac-1-(2,4-Difluorophenyl)-7-(dimethylamino)-4-oxo-N-(1,1,1-trifluoro-4-methylpentan-2-yl)-1,4-dihydro-1,8-naphthyridine-3-carboxamide], for which the EC50 stood at 30 nM.
`CCC(NC(=O)c1cn(-c2ccc(F)cc2F)c2nc(N(C)C)ccc2c1=O)C(F)(F)F` (racemic) [Example 146, rac-1-(2,4-Difluorophenyl)-7-(dimethylamino)-4-oxo-N-(1,1,1-trifluorobutan-2-yl)-1,4-dihydro-1,8-naphthyridine-3-carboxamide] gave an EC50 of 26 nM.
Under `CC(NC(=O)c1cn(-c2ccc(F)cc2F)c2nc(N(C)C)ccc2c1=O)C(F)(F)F` (racemic) [Example 147, rac-1-(2,4-Difluorophenyl)-7-(dimethylamino)-4-oxo-N-(1,1,1-trifluoropropan-2-yl)-1,4-dihydro-1,8-naphthyridine-3-carboxamide] stands 82 nM; under `CN(C)c1ccc2c(=O)c(C(=O)NC(C3CC3)C(F)(F)F)cn(-c3ccc(F)cc3F)c2n1` (racemic) [Example 148, rac-N-(1-Cyclopropyl-2,2,2-trifluoroethyl)-1-(2,4-difluorophenyl)-7-(dimethylamino)-4-oxo-1,4-dihydro-1,8-naphthyridine-3-carboxamide], 41 nM.
Under `CC(C)C(NC(=O)c1cn(-c2ccc(F)cc2F)c2nc(N(C)C)ccc2c1=O)C(F)(F)F` (racemic) [Example 150, rac-1-(2,4-Difluorophenyl)-7-(dimethylamino)-4-oxo-N-(1,1,1-trifluoro-3-methylbutan-2-yl)-1,4-dihydro-1,8-naphthyridine-3-carboxamide] stands 72 nM; under `CC(COC(F)(F)F)NC(=O)c1cn(-c2ccc(F)cc2F)c2nc(N3CCCC3=O)ccc2c1=O` (racemic) [Example 230, rac-1-(2,4-Difluorophenyl)-4-oxo-7-(2-oxopyrrolidin-1-yl)-N-[1-(trifluoromethoxy)propan-2-yl]-1,4-dihydro-1,8-naphthyridine-3-carboxamide], 203 nM.
